From BigSolDB 2.1

CCc1cc(C(N)=S)ccn1
solubility (mole fraction) (in 2-ethoxyethanol, 278.15 K): 0.0252 | solubility (mole fraction) (in 2-ethoxyethanol, 283.15 K): 0.0261 | solubility (mole fraction) (in 2-ethoxyethanol, 288.15 K): 0.0289 | solubility (mole fraction) (in 2-ethoxyethanol, 293.15 K): 0.0336 | solubility (mole fraction) (in 2-ethoxyethanol, 298.15 K): 0.0383 | solubility (mole fraction) (in 2-ethoxyethanol, 303.15 K): 0.0449 | solubility (mole fraction) (in 2-ethoxyethanol, 308.15 K): 0.0516 | solubility (mole fraction) (in 2-ethoxyethanol, 313.15 K): 0.0596 | solubility (mole fraction) (in 2-ethoxyethanol, 318.15 K): 0.0677 | solubility (mole fraction) (in 2-ethoxyethanol, 323.15 K): 0.0751 | solubility (mole fraction) (in 2-methoxyethanol, 278.15 K): 0.0343 | solubility (mole fraction) (in 2-methoxyethanol, 283.15 K): 0.0387 | solubility (mole fraction) (in 2-methoxyethanol, 288.15 K): 0.0441 | solubility (mole fraction) (in 2-methoxyethanol, 293.15 K): 0.0494 | solubility (mole fraction) (in 2-methoxyethanol, 298.15 K): 0.055 | solubility (mole fraction) (in 2-methoxyethanol, 303.15 K): 0.0617 | solubility (mole fraction) (in 2-methoxyethanol, 308.15 K): 0.0676 | solubility (mole fraction) (in 2-methoxyethanol, 313.15 K): 0.075 | solubility (mole fraction) (in 2-methoxyethanol, 318.15 K): 0.0848 | solubility (mole fraction) (in 2-methoxyethanol, 323.15 K): 0.094 | solubility (mole fraction) (in DMAc, 278.15 K): 0.169 | solubility (mole fraction) (in DMAc, 283.15 K): 0.173 | solubility (mole fraction) (in DMAc, 288.15 K): 0.179 | solubility (mole fraction) (in DMAc, 293.15 K): 0.189 | solubility (mole fraction) (in DMAc, 298.15 K): 0.199 | solubility (mole fraction) (in DMAc, 303.15 K): 0.209 | solubility (mole fraction) (in DMAc, 308.15 K): 0.221 | solubility (mole fraction) (in DMAc, 313.15 K): 0.233 | solubility (mole fraction) (in DMAc, 318.15 K): 0.245 | solubility (mole fraction) (in DMAc, 323.15 K): 0.257 | solubility (mole fraction) (in DMF, 278.15 K): 0.104 | solubility (mole fraction) (in DMF, 283.15 K): 0.112 | solubility (mole fraction) (in DMF, 288.15 K): 0.123 | solubility (mole fraction) (in DMF, 293.15 K): 0.135 | solubility (mole fraction) (in DMF, 298.15 K): 0.148 | solubility (mole fraction) (in DMF, 303.15 K): 0.157 | solubility (mole fraction) (in DMF, 308.15 K): 0.167 | solubility (mole fraction) (in DMF, 313.15 K): 0.185 | solubility (mole fraction) (in DMF, 318.15 K): 0.199 | solubility (mole fraction) (in DMF, 323.15 K): 0.219 | solubility (mole fraction) (in DMSO, 293.15 K): 0.187 | solubility (mole fraction) (in DMSO, 298.15 K): 0.205 | solubility (mole fraction) (in DMSO, 303.15 K): 0.216 | solubility (mole fraction) (in DMSO, 308.15 K): 0.228 | solubility (mole fraction) (in DMSO, 313.15 K): 0.243 | solubility (mole fraction) (in DMSO, 318.15 K): 0.259 | solubility (mole fraction) (in DMSO, 323.15 K): 0.271 | solubility (mole fraction) (in NMP, 278.15 K): 0.182 | solubility (mole fraction) (in NMP, 283.15 K): 0.191 | solubility (mole fraction) (in NMP, 288.15 K): 0.199 | solubility (mole fraction) (in NMP, 293.15 K): 0.212 | solubility (mole fraction) (in NMP, 298.15 K): 0.22 | solubility (mole fraction) (in NMP, 303.15 K): 0.23 | solubility (mole fraction) (in NMP, 308.15 K): 0.242 | solubility (mole fraction) (in NMP, 313.15 K): 0.253 | solubility (mole fraction) (in NMP, 318.15 K): 0.265 | solubility (mole fraction) (in NMP, 323.15 K): 0.277 | solubility (mole fraction) (in acetone, 278.15 K): 0.00589 | solubility (mole fraction) (in acetone, 283.15 K): 0.00695 | solubility (mole fraction) (in acetone, 288.15 K): 0.00799 | solubility (mole fraction) (in acetone, 293.15 K): 0.00925 | solubility (mole fraction) (in acetone, 298.15 K): 0.0109 | solubility (mole fraction) (in acetone, 303.15 K): 0.0124 | solubility (mole fraction) (in acetone, 308.15 K): 0.0148 | solubility (mole fraction) (in acetone, 313.15 K): 0.0172 | solubility (mole fraction) (in acetone, 318.15 K): 0.0194 | solubility (mole fraction) (in acetone, 323.15 K): 0.0226 | solubility (mole fraction) (in ethanol, 278.15 K): 0.00464 | solubility (mole fraction) (in ethanol, 283.15 K): 0.00566 | solubility (mole fraction) (in ethanol, 288.15 K): 0.00695 | solubility (mole fraction) (in ethanol, 293.15 K): 0.00835 | solubility (mole fraction) (in ethanol, 298.15 K): 0.00993 | solubility (mole fraction) (in ethanol, 303.15 K): 0.012 | solubility (mole fraction) (in ethanol, 308.15 K): 0.0134 | solubility (mole fraction) (in ethanol, 313.15 K): 0.0161 | solubility (mole fraction) (in ethanol, 318.15 K): 0.0192 | solubility (mole fraction) (in ethanol, 323.15 K): 0.0228 | solubility (mole fraction) (in ethyl acetate, 278.15 K): 0.00874 | solubility (mole fraction) (in ethyl acetate, 283.15 K): 0.0102 | solubility (mole fraction) (in ethyl acetate, 288.15 K): 0.0122 | solubility (mole fraction) (in ethyl acetate, 293.15 K): 0.0144 | solubility (mole fraction) (in ethyl acetate, 298.15 K): 0.0171 | solubility (mole fraction) (in ethyl acetate, 303.15 K): 0.0199 | solubility (mole fraction) (in ethyl acetate, 308.15 K): 0.0231 | solubility (mole fraction) (in ethyl acetate, 313.15 K): 0.0265 | solubility (mole fraction) (in ethyl acetate, 318.15 K): 0.0312 | solubility (mole fraction) (in ethyl acetate, 323.15 K): 0.0381 | solubility (mole fraction) (in isopropanol, 278.15 K): 0.00292 | solubility (mole fraction) (in isopropanol, 283.15 K): 0.00334 | solubility (mole fraction) (in isopropanol, 288.15 K): 0.0042 | solubility (mole fraction) (in isopropanol, 293.15 K): 0.00507 | solubility (mole fraction) (in isopropanol, 298.15 K): 0.00642 | solubility (mole fraction) (in isopropanol, 303.15 K): 0.00805 | solubility (mole fraction) (in isopropanol, 308.15 K): 0.0096 | solubility (mole fraction) (in isopropanol, 313.15 K): 0.0115 | solubility (mole fraction) (in isopropanol, 318.15 K): 0.0143 | solubility (mole fraction) (in isopropanol, 323.15 K): 0.018 | solubility (mole fraction) (in methanol, 278.15 K): 0.00534 | solubility (mole fraction) (in methanol, 283.15 K): 0.0063 | solubility (mole fraction) (in methanol, 288.15 K): 0.0074 | solubility (mole fraction) (in methanol, 293.15 K): 0.00919 | solubility (mole fraction) (in methanol, 298.15 K): 0.0112 | solubility (mole fraction) (in methanol, 303.15 K): 0.013 | solubility (mole fraction) (in methanol, 308.15 K): 0.0159 | solubility (mole fraction) (in methanol, 313.15 K): 0.018 | solubility (mole fraction) (in methanol, 318.15 K): 0.0215 | solubility (mole fraction) (in methanol, 323.15 K): 0.0256 | solubility (mole fraction) (in n-propanol, 278.15 K): 0.00381 | solubility (mole fraction) (in n-propanol, 283.15 K): 0.00464 | solubility (mole fraction) (in n-propanol, 288.15 K): 0.00562 | solubility (mole fraction) (in n-propanol, 293.15 K): 0.00719 | solubility (mole fraction) (in n-propanol, 298.15 K): 0.00862 | solubility (mole fraction) (in n-propanol, 303.15 K): 0.0103 | solubility (mole fraction) (in n-propanol, 308.15 K): 0.0128 | solubility (mole fraction) (in n-propanol, 313.15 K): 0.0159 | solubility (mole fraction) (in n-propanol, 318.15 K): 0.0192 | solubility (mole fraction) (in n-propanol, 323.15 K): 0.0231
